The values below come from patent US11590158B2, “Pharmaceutical compositions of lipoic acid choline ester salts and methods of treatment using same” (Novartis AG, priority 2020, dated 2023).

Data set [1] has as its system Staphylococcus aureus, Pseudomonas aeruginosa, Escherichia coli, Candida albicans, and Aspergillus brasiliensis. The data set can be described thus: Preservative efficacy test, overall outcome against USP criteria. Format: cell-based. As to conditions: formulations with cyclodextrin. As for the experimental part: The testing was carried out using the following procedure: Five different challenge organisms were evaluated (Staphylococcus aureus, Pseudomonas aeruginosa, Escherichia coli, Candida albicans, and Aspergillus brasiliensis) were evaluated for each test formulation, and inoculated to a concentration of 10^6 colony forming units per ml (CFU/ml). The microbial suspension was incubated and sampled at 7, 14, 21, and 28 days. At the time of sampling, a sample was diluted 10-fold into tryptase soy broth medium, and 100 μl plated in growth agar plates to count survivors. The survivor count was used to determine log reduction. The preservative efficacy test criteria for multidose pharmaceutical compositions under US Pharmacopoeia standards are as follows. [table]

For the next data set, the system named is rabbit eye. The data set can be described thus: Acute rabbit ocular tolerability study. As to conditions: rabbit left eye dosed 6 times, one drop about 30 microliter, about 1 hour apart. Format: in vivo. On the procedure: A number of excipients were explored to determine which excipients would reduce the formation of associative species. Acute rabbit ocular tolerability studies were performed to test the ocular tolerability of LACE tosylate with various excipients. The study design involved three male rabbits per arm. The rabbits' left eye was dosed 6 times with one drop each time, about 1 hour apart, administering about 30 microliter per drop. The right eye was not dosed and served as a control.

Take `N=C(N)NC(=N)N` [Biguanide]: in data set [1], the “efficacy as a preservative in LACE tosylate formulations” value is listed as “not found to be efficacious”.
Consider `CC(O)CO` (centres unmarked) [Propylene Glycol], for which the Tolerated result in the data set with rabbit eye was “No”.
